Data as given in ChEMBL document CHEMBL1201862, “PubChem BioAssay data set” (2004).
Active and inactive are the calls of the source.

Experiments:
[1] = target: Glucose-6-phosphate 1-dehydrogenase (Homo sapiens, UniProt P11413); test: inhibition of Homo sapiens G6PD, dose series – biochemical, fluorescence, selectivity assay for P. falciparum G6PD inhibitor project, dose response (AID 504792); assay type: functional
[2] = viability loss in THP-1 monocytes – THP-1 cells, cytotoxicity control for Vif-APOBEC3G degradation inhibitor project, dose response (AID 1117359); assay type: functional; conditions: THP-1
[3] = target: T1, Mannose-6-phosphate isomerase (Homo sapiens, UniProt P34949); test: MPI inhibition at elevated mannose 6-phosphate – biochemical, fluorescence intensity, high mannose 6-phosphate, primary screen (AID 1220)
T1 sequence (P34949 whole entry): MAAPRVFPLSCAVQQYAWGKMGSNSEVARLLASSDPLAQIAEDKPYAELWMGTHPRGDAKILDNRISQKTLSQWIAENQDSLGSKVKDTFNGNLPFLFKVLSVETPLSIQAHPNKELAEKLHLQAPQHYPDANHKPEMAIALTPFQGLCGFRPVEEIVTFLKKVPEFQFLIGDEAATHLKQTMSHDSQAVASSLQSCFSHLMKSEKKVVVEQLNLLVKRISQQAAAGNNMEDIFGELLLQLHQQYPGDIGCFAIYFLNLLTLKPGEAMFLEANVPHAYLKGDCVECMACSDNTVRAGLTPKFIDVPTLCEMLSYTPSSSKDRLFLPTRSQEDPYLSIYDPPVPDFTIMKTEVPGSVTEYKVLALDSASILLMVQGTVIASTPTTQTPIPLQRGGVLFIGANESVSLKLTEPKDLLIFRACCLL

[4] = target: Genome polyprotein (dengue virus type 2, UniProt P29990); test: flavivirus cap methylation enzyme inhibition – biochemical, confirmation dose response, primary screen (AID 588689); assay type: functional
Sequence of Genome polyprotein (P29990 2492-3391 limits assumed): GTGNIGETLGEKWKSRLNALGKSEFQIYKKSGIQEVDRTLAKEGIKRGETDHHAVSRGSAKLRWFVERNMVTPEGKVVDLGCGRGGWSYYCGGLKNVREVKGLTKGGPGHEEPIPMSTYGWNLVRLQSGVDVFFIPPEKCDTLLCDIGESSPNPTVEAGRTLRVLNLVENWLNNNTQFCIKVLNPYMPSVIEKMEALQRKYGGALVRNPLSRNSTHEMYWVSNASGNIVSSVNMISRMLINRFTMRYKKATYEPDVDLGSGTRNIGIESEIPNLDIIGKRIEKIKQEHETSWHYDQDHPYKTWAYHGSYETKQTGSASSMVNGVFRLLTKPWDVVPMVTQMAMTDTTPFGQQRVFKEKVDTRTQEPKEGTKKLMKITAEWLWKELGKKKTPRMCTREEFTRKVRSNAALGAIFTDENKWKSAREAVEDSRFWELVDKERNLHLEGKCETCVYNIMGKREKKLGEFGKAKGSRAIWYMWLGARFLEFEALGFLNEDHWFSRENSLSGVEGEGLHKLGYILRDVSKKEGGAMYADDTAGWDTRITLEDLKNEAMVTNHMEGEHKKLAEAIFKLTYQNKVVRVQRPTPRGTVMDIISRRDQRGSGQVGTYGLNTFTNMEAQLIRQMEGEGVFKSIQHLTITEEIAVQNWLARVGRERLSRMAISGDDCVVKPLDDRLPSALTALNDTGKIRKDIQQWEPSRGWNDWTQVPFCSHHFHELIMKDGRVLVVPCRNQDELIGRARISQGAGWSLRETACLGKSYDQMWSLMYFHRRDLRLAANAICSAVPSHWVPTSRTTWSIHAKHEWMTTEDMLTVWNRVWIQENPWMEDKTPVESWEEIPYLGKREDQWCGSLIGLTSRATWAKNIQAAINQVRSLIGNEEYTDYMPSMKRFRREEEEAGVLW

[5] = target: T2, Protein Tat (Human immunodeficiency virus type 1 group M subtype B (isolate HXB2)(HIV-1), UniProt P04608); assay type: functional;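 further: tat binding to TAR RNA read out by fluorescence polarization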
T2 sequence (P04608 whole entry): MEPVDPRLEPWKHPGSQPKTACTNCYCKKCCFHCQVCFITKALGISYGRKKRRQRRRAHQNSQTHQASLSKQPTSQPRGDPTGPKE

[6] = target: RNA-editing ligase 1, mitochondrial (Trypanosoma brucei brucei, UniProt P86926); test: inhibition of trypanosome RNA editing ligase – biochemical, fluorescence, Trypanosoma brucei, dose response (AID 1117295); assay type: functional
Sequence of RNA-editing ligase 1, mitochondrial (P86926 whole entry): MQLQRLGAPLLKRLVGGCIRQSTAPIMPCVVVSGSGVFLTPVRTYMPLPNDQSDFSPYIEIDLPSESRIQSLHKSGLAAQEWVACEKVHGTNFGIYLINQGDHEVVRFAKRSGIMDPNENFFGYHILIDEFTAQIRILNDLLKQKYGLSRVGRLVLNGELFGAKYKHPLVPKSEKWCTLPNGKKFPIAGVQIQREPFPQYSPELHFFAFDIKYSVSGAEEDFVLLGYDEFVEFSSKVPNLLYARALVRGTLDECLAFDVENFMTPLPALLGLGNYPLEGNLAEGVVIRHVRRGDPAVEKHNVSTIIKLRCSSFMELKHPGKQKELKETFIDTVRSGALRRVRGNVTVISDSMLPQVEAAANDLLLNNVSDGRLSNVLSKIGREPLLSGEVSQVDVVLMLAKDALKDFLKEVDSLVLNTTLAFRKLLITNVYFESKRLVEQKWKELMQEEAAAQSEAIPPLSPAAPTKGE

[7] = system: Vero; test: viability of Vero cells under compound – cytotoxicity control for flavivirus capping enzyme inhibitors (AID 588742); assay type: functional; conditions: Chlorocebus sabaeus
[8] = fluconazole-exposed Candida albicans growth modulators – fluorescence, retest, confirmation (AID 2467); assay type: functional, cell-based
[9] = NIH-3T3 fibroblast cytotoxicity, dose response, cytotoxicity control, cell-based, fluorescence, Alamar Blue, secondary assay (AID 2327); assay type: functional;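 further: NIH-3T3 mouse fibroblasts cultured with fluconazole at 8 µg/mL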
[10] = target: T3, Leucine aminopeptidase (Plasmodium falciparum 3D7, UniProt Q8IL11); test: P. falciparum M17LAP inhibitors, primary screen, biochemical, fluorogenic H-Leu-NHMec substrate, 1536-well (AID 1619); assay type: functional
T3 sequence (Q8IL11 whole entry): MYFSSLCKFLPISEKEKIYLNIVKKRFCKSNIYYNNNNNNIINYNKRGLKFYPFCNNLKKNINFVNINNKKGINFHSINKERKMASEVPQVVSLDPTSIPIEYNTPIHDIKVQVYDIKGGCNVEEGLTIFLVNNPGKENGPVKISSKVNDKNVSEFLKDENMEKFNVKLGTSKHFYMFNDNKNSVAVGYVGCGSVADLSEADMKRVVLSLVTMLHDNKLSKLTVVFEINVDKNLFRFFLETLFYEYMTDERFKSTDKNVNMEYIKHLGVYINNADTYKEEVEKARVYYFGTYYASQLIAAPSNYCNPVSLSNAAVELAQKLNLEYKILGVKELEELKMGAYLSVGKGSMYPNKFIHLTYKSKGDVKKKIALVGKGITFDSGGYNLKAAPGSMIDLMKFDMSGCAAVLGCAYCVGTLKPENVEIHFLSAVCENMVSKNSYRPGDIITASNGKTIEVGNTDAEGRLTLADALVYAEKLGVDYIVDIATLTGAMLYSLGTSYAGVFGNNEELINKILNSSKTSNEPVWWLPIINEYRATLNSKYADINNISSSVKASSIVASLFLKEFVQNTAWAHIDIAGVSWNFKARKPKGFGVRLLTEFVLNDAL

[11] = target: Vasopressin V1b receptor (Homo sapiens, UniProt P47901); test: Late-stage results from the probe development effort to identify antagonists of arginine vasopressin receptor 1a (AVPR1a): fluorescence-based cell-based dose response AVPR1b inhibition counterscreen assay.; assay type: functional
Sequence of Vasopressin V1b receptor (P47901 whole entry): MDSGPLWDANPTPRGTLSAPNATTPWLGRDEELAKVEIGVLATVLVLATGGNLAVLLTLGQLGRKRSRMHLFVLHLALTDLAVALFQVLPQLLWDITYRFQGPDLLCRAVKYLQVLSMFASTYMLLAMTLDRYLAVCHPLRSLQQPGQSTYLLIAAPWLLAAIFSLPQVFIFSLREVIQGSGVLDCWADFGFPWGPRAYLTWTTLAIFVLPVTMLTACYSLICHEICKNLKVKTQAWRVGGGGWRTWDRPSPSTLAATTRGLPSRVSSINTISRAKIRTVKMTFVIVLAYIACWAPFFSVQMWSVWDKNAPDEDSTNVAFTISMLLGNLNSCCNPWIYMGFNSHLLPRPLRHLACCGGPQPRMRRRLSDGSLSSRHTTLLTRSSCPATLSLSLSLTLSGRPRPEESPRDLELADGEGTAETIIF

[12] = target: Vasopressin V2 receptor (Homo sapiens, UniProt P30518); test: Late-stage results from the probe development effort to identify antagonists of arginine vasopressin receptor 1a (AVPR1a): fluorescence-based cell-based dose response AVPR2 inhibition counterscreen assay.; assay type: functional
Sequence of Vasopressin V2 receptor (P30518 whole entry): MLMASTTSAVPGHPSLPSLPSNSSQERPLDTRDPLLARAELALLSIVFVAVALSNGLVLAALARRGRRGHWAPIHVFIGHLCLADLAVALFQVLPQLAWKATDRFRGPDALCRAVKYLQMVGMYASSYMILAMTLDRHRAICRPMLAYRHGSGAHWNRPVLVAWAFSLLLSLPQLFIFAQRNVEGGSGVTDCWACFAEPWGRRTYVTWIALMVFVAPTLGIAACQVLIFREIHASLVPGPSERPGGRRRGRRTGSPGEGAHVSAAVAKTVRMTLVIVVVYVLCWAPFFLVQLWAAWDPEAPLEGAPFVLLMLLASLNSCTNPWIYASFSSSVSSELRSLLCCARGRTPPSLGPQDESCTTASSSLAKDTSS

[13] = Late-stage results from the probe development effort to identify antagonists of arginine vasopressin receptor 1a (AVPR1a): fluorescence-based cell-based dose response OXTR inhibition counterscreen assay.; assay type: functional
[14] = Late-stage results from the probe development effort to identify antagonists of arginine vasopressin receptor 1a (AVPR1a): fluorescence-based cell-based dose response AVPR1a inhibition assay.; assay type: functional
[15] = Counterscreen for inhibitors of Trypanosoma brucei methionyl tRNA synthetase (MetRS): Luminescence-based cell-based high throughput dose response assay to identify compounds that are cytotoxic to Jurkat human T lymphocyte cells.; assay type: functional
[16] = Late stage counterscreen for inhibitors of Trypanosoma brucei methionyl tRNA synthetase (MetRS): Luminescence-based cell-based high throughput dose response assay to identify compounds that are cytotoxic to Jurkat human T lymphocyte cells.; assay type: functional
[17] = target: T4, Methionyl-tRNA synthetase, putative (Trypanosoma brucei brucei, UniProt Q38C91); assay type: functional, Trypanosoma brucei brucei strain 927/4 GUTat10.1
T4 sequence (Q38C91 whole entry): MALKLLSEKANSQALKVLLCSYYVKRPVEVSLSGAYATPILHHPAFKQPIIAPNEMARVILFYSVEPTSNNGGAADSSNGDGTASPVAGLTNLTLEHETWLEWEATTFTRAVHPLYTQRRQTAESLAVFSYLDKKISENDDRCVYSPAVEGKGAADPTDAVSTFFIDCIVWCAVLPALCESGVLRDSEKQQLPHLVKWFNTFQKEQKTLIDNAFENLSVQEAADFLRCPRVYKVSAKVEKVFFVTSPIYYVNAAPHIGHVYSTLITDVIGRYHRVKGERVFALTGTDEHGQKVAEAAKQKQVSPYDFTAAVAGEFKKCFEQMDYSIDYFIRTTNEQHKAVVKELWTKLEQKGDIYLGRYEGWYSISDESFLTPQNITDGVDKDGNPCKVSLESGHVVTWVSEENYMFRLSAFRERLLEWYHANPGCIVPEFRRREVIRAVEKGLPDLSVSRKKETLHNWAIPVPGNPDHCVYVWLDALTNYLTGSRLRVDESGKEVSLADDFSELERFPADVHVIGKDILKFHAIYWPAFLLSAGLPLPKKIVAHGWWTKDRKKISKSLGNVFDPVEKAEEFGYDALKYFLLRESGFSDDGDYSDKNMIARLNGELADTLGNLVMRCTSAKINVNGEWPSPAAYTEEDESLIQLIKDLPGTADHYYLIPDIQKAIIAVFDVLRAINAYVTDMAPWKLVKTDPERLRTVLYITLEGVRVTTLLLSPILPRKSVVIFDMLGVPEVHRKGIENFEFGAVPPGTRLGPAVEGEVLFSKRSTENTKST

[18] = target: T4, Methionyl-tRNA synthetase, putative; assay type: functional, Trypanosoma brucei brucei strain 927/4 GUTat10.1; remark: listed apart in the source
[19] = viability loss in MITF-independent A375 cells – cell-based, CellTiter-Glo luminescence, dry powder, set 2, counter-screen for MITF inhibitor project, dose response (AID 624489); assay type: functional; conditions: A-375;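 further: actives are compounds lowering A375 viability meaning general cytotoxicity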
[20] = cytotoxicity in MITF-independent A375 cells – cell-based, CellTiter-Glo luminescence, dry powder, set 4, counter-screen for MITF inhibitor project, dose response (AID 624364); assay type: functional; conditions: A-375;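 further: A375 melanoma cells are MITF independent so this is a counter screen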
[21] = inhibitors of non-replicating M. tuberculosis, dose response, luciferase, dry powder (AID 651619); assay type: functional; conditions: Mycobacterium tuberculosis
[22] = inhibitors of non-replicating M. tuberculosis, dose response, luciferase, dry powder (AID 651620); assay type: functional; conditions: Mycobacterium tuberculosis
[23] = viability loss in CEM21 cells – cell-based, plate reader, dry powder, cytotoxicity control, dose response (AID 687026); assay type: functional
[24] = luciferase signal loss, tTA control fusion, HeLa F-luc tTA cells, dry powder, counter-screen for HIV Env fusion inhibitor project, dose response (AID 687021); assay type: functional, cell-based
[25] = inhibition of Env-driven cell fusion – HIV entry, plate reader, dry powder, dose response (AID 687023); assay type: functional, cell-based
[26] = target: Metabotropic glutamate receptor 7 (Homo sapiens, UniProt Q14831); test: potentiation of glutamate EC20 at mGlu7 – cell-based, calcium mobilization, Galpha15, dose response (AID 743384); assay type: functional
Sequence of Metabotropic glutamate receptor 7 (Q14831 whole entry): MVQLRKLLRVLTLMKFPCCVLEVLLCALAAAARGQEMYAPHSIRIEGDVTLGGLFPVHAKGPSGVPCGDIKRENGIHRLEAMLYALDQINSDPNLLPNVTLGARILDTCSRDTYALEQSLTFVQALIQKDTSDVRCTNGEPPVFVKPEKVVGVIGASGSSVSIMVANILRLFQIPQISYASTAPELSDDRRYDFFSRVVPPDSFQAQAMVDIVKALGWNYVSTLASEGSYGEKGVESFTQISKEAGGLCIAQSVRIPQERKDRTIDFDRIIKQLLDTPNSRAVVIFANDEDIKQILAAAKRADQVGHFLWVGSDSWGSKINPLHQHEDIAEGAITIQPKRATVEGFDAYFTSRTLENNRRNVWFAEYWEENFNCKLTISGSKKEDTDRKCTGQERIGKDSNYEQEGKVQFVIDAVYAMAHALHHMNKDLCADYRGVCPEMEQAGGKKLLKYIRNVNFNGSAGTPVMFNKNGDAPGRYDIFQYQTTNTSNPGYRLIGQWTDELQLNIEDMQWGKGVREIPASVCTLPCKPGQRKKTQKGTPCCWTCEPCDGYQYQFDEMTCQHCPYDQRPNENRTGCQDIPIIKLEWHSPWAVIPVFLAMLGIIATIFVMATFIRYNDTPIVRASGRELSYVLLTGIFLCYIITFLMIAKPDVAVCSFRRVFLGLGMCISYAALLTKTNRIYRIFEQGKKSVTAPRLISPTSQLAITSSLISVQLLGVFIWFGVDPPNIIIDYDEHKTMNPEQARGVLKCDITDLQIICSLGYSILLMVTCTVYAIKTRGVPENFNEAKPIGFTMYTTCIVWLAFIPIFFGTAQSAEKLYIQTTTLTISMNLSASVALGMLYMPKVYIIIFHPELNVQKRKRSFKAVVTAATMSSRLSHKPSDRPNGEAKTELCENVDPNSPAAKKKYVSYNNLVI

[27] = general mammalian cell viability loss – activator set, cherry-pick, cytotoxicity control for miR-122 modulator project, dose response (AID 720690); assay type: functional, cell-based;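 further: HEK293T human cells scored for general mammalian cytotoxicity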
[28] = reduced cellular PGC1a acetyl-lysine signal – cell-based, cherry-picked samples, dose response (AID 720514); assay type: functional;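 further: potency may reflect raised or lowered acetylation signal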
[29] = general mammalian cell viability loss – inhibitor set, cherry-pick, set 2, cytotoxicity control for miR-122 modulator project, dose response (AID 720697); assay type: functional, cell-based
[30] = activation of miR-122 Renilla sensor silencing – cell-based, Huh7 psiCHECK-miR122, Renilla luciferase, cherry-picked, dose response (AID 651956); assay type: functional;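 further: huh7 hepatoma cells stably carrying a psiCHECK-2 miR-122 sensor plasmid; renilla luciferase signal reporting endogenous miR-122 activity after 48 h compound exposure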
[31] = HIV-1 Vif–A3G interaction blockers – biochemical, TR-FRET, GST-Vif 1-94, biotin-A3G peptide, dose response retest, primary screen (AID 1117319); assay type: functional;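 further: TR-FRET signal of purified GST-Vif binding a biotinylated A3G peptide; inhibitors lower the FRET signal by blocking Vif and A3G binding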
[32] = target: T5, Low molecular weight phosphotyrosine protein phosphatase (Homo sapiens, UniProt P24666); test: inhibition of human LMPTP enzyme activity – biochemical, absorbance, pNPP substrate, LMPTP-A isoform, set 2, orthogonal assay, dose response (AID 743308); assay type: functional
T5 sequence (P24666 whole entry): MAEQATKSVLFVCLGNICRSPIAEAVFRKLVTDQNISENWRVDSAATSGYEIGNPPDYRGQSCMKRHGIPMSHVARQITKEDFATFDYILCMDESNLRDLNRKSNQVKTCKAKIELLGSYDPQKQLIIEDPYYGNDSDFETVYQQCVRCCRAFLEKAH

[33] = target: T5, Low molecular weight phosphotyrosine protein phosphatase; test: inhibition of LMPTP-A enzymatic activity – biochemical, OMFP substrate, fluorescence intensity, set 2, dose response (AID 743307); assay type: functional
[34] = target: T5, Low molecular weight phosphotyrosine protein phosphatase; assay type: functional; conditions: read-out: IC50_Mean
[35] = target: Glutathione-S-transferase (Schistosoma japonicum, UniProt Q26513); test: GST-antibody interaction or FRET quenching – biochemical, TR-FRET, artefact control for Vif-APOBEC3G degradation inhibitor project, dose response (AID 1117362); assay type: functional
Sequence of Glutathione-S-transferase (Q26513 whole entry): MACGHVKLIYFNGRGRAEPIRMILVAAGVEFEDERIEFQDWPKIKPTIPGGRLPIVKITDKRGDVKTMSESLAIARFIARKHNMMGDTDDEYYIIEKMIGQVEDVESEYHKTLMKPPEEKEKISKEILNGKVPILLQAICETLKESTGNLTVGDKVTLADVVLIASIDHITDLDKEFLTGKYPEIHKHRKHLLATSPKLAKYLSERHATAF

[36] = Dd2 parasite growth inhibition in erythrocytes – SYBR Green, dry powder samples, set 9, dose response (AID 1159568); assay type: functional, cell-based
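Wherever IC50 Mean is given: Dose-response confirmation assay measuring inhibition of LMPTP enzyme activity by fluorescence intensity read-out.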

Sequence of Glucose-6-phosphate 1-dehydrogenase (P11413 whole entry): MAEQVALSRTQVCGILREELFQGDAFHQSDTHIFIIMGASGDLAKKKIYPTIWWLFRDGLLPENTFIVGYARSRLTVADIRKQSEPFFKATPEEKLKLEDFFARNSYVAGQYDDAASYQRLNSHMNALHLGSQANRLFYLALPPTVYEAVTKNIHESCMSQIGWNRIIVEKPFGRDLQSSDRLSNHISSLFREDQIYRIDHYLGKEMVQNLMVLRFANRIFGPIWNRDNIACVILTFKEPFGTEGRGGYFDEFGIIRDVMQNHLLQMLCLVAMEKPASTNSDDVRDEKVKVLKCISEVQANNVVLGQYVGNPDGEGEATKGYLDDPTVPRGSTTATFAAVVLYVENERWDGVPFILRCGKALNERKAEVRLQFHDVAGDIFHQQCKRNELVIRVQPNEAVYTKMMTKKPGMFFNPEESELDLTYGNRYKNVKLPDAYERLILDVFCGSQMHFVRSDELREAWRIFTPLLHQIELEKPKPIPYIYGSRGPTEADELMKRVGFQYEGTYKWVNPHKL

CC/N=c1\scc(C)n1/N=C/c1ccc(O)c(O)c1O
IC50 [1]: 57.4 µM (inactive)
CC50 [2]: 29.6 µM (active)
IC50 [3]: 12 µM (active)
IC50 [4]: 21.4 µM (active)
IC50 [5]: 54.4 µM (inconclusive)
IC50 [6]: > 96.6 µM (inactive)
CC50 [7]: > 40 µM (active)
EC50 [8]: > 38 µM (not active)
EC50 [9]: > 150 µM (inactive)
IC50 [10]: 82.3 µM (active)

COc1ccccc1N(CC1CC1)C(=O)N1CCN(c2ccccc2C)CC1
IC50 [11]: 17.9 µM (inactive)
IC50 [12]: 12.3 µM (inactive)
IC50 [13]: 12.3 µM (inactive)
IC50 [14]: 0.292 µM (active)

O=C1CC(SCc2nc3ccccc3[nH]2)C(=O)N1c1cccc(Cl)c1 (stereo unspecified)
IC50 [15]: 65 µM (inactive)
IC50 [16]: > 83.3 µM (inactive)
IC50 [17]: 3.81 µM (active)
IC50 [18]: 2.6 µM (active)

COc1ccc(C2=C(NC(=O)c3cccc(Cl)c3)C(=O)c3ccccc3C2=O)cc1
AC50 [19]: 18.2 µM (active)
AC50 [20]: 24.1 µM (active)

c1ccc(-c2nnc(SCC3CC3)o2)cc1
IC90 [21]: 2 µM (active)
IC90 [22]: 2 µM (active)

COC(=O)COc1ccc(S(=O)(=O)NCc2ccncc2)cc1
AC50 [23]: > 70 µM (inactive)
AC50 [24]: > 70 µM (inactive)
AC50 [25]: 20.7 µM (active)

Cc1ccc(CSCC(=O)c2cc(C)n(-c3ccc(OC(F)F)cc3)c2C)cc1
EC50 [26]: 3.16 µM (active)

COc1ccc(C#Cc2ccc([C@@H]3[C@H](CO)N4CCCCN(C(=O)Nc5ccccc5)C[C@@H]34)cc2)cc1
AC50 [27]: 7.77 µM (active)
AC50 [28]: 9.62 µM (active)
AC50 [29]: 0.405 µM (active)
AC50 [30]: 7.42 µM (active)

Cc1ccc(C(=O)N2CCN(c3ccccc3)CC2)cc1C
IC50 [31]: > 100 µM (active)

c1ccc(-c2nc(NC3CCCC3)c3ccccc3n2)cc1
IC50 [32]: > 80 µM (inactive)
IC50 [33]: 21.1 µM (inactive)
IC50 [34]: 10 µM (active)

CCOC(=O)C1CCCC12Nc1cccc3cccc(c13)N2 (stereo unspecified)
IC50 [35]: > 100 µM (active)

C[C@@H]1CN([C@H](C)CO)C(=O)c2cc(N(C)C)ccc2O[C@@H](C)CCCCO[C@@H]1CN(C)S(=O)(=O)c1ccc(F)cc1
AC50 [36]: 12.1 µM (active)
